The data set is described as follows: Agilent ZORBAX 300 SB-C18, 150 × 1 mm, 3.5 µm; A: water + 0.01% heptafluorobutyric acid; B: acetonitrile + 0.01% heptafluorobutyric acid; gradient (min/%B) 0/0 100/90. As to conditions: stereoisomer not certain.
With `O=C(Oc1ccccc1)c1cccnc1`, the LC retention time was determined as 11.9 min.

With `O=CC1C(=O)Nc2ccccc21` (stereo not given), the LC retention time stood at 8.65 min.

Regarding `CN(C)Cc1ccccc1`, the LC retention time was determined as 7.53 min.

Turning to `C=CCN(CC=C)CC=C`, the LC retention time stood at 7.98 min.

For `O=C(O)CC1C(=O)Nc2ccccc21` (stereo not given), the LC retention time was found to be 7.72 min.

Regarding `CC(C)(CO)Nc1c[nH]c(=O)[nH]c1=O`, the LC retention time was 6.01 min.

As to `NC(=O)C1(N2CCCCC2)CCN(C(=O)CN2CCNCC2)CC1`, the LC retention time is 7.28 min.

For `Cc1cccc(N)c1`, the LC retention time turned out to be 8.01 min.

Regarding `O=C(NNC(=O)C1CCCCC1C(=O)O)C(c1ccccc1)c1ccccc1` (stereo not given), the LC retention time turned out to be 11.8 min.

Consider `Cc1cc(C(c2cc(C)c(N)c(C)c2)c2ccco2)cc(C)c1N`, for which the LC retention time was 12.1 min.

Consider `C=C(C)CC1C=CCC(CC(=C)C)N1` (stereo not given), for which the LC retention time came to 9.63 min.

For the compound `CC(C)NCC(O)COc1ccc(CCOCC2CC2)cc1` (stereo not given), the LC retention time is 10.7 min.

In the case of `COc1ccc(C=NNC(N)=O)c(OC)c1`, the LC retention time was 9.56 min.

`COc1ccc2c3c1OC1C(=O)CCC4C(C2)N(C)CCC314` (stereo not given): the LC retention time came to 8.61 min.

For the compound `CCCCCCn1c2ccccc2c2cc(C(C)=O)ccc21`, the LC retention time was determined as 20 min.

As for `NC(=O)C1CCN(C(=O)c2ccco2)CC1`, the LC retention time came out at 6.85 min.

As for `CC(C)CN(CC(C)C)CC(C)C`, the LC retention time stood at 9.7 min.

As for `c1ccc2c(c1)CCCN2`, the LC retention time is 7.61 min.

As for `COc1cccc(C2(O)CCCCC2CN(C)C)c1` (stereo not given), the LC retention time is 9.38 min.

For the compound `CN(C)C1CCCCC1`, the LC retention time is 7.57 min.

As to `CNCCCc1cc(C)ccc1O`, the LC retention time was 8.44 min.

On to `Cc1cnc2c(ccc3c(C)c(C)cnc32)c1C`, for which the LC retention time was found to be 9.85 min.

For `CC1CN=C(NC2CCCCC2)S1` (stereo not given), the LC retention time turned out to be 7.02 min.

As for `Nc1ccc2c(c1)SSc1cc(N)ccc1-2`, the LC retention time was 10.3 min.

Regarding `NC(CC(=O)O)c1ccc(C(=O)O)cc1` (stereo not given), the LC retention time stood at 6.32 min.

With `Cc1ccc(C)c2c1ccn2C`, the LC retention time came out at 15.8 min.

Turning to `Cc1nc2ccccc2nc1N=C(N)NC(=O)c1ccccc1`, the LC retention time came out at 11.1 min.

Turning to `O=c1nc(NN=Cc2cccnc2)cn[nH]1`, the LC retention time came out at 6.94 min.

For `Cc1ccc(C2C3=C(CC(C)(C)CC3=O)NC3=C2C(=O)CC(C)(C)C3)cc1`, the LC retention time was 13.2 min.

As for `Cn1c(=O)n(C)c2cc(N3CCCCC3)c(N)cc21`, the LC retention time was 8.49 min.

Regarding `COc1cc(C=CC(=O)c2ccc3c(c2)OCO3)cc(OC)c1OC`, the LC retention time came out at 14.7 min.

With `COc1cccc(OCCN)c1`, the LC retention time is 8.13 min.

On to `CCOC(=O)C(C(C)=NNC(=O)c1ccc(NC(C)=O)cc1)C(C)C` (stereo not given), for which the LC retention time came out at 10.8 min.

On to `c1ccc2c(c1)CCN2`, for which the LC retention time came out at 7.26 min.

For `C=CCC1(CC=C)CCCCN1`, the LC retention time amounted to 8.76 min.

Consider `C=CCC(N)(CC=C)C1=CC(CC(=C)C)NC(CC(=C)C)C1` (stereo not given), for which the LC retention time worked out at 8.79 min.

Regarding `COC(=O)c1c(C)[nH]c(-c2ccccc2)c1-c1ccccc1`, the LC retention time was 15.6 min.

On to `Cc1c(C(=O)O)[nH]c(=O)[nH]c1=O`, for which the LC retention time was 1.56 min.

For the compound `O=C(NCc1ccc(-n2cccc2)cc1)C(c1ccccc1)c1ccccc1`, the LC retention time stood at 16.6 min.

`CN(C)c1ccc(CNC2CC(C)(C)NC(C)(C)C2)cc1`: the LC retention time came to 8.12 min.

`CCCCCCCCCCCN`: the LC retention time is 12.2 min.

For the compound `CNC1C(OC2OC(CO)C(N)C(O)C2O)OC2CC(N)C(OC3C(N)CC(N)C(O)C3O)OC2C1O` (stereo not given), the LC retention time came to 8.39 min.

With `COc1ccccc1CC(=O)Nc1cccc(C)c1`, the LC retention time was 13.9 min.

Consider `Cc1nc2ccccc2nc1COc1ccc2c(c1)OCO2`, for which the LC retention time was determined as 14.1 min.

In the case of `c1ccc(-c2nc3ccccc3o2)cc1`, the LC retention time came out at 15.4 min.

Regarding `COc1ccc2c(=O)c(C)c(-c3ccccc3)oc2c1CN(C)C`, the LC retention time came to 10.1 min.

For `COc1cccc2c1NCCC2`, the LC retention time is 8.45 min.

Regarding `CNCCO`, the LC retention time came out at 2.61 min.

Take `c1ccc(-c2cc(-c3ccccc3)n(-c3ccccc3)n2)cc1`: the LC retention time was determined as 19 min.

Take `Cc1nc(N=C(N)N)nc2c(C)cccc12`: the LC retention time worked out at 9.23 min.

As for `CC(C)CNCC(C)C`, the LC retention time was 8.04 min.

`OCc1cccnc1-c1ncccc1CO`: the LC retention time was found to be 6.38 min.

As for `Cc1cc(C)c2c(CC(=O)NN(C)C)coc2c1`, the LC retention time is 10.9 min.

For the compound `O=C1CC2(CCCC2)CC(=O)N1CCCCN1CCN(c2ncccn2)CC1`, the LC retention time stood at 10.2 min.

Consider `CCN(CC)C(=O)c1cc(C)nc2c1c(=O)n(CC(=O)Nc1ccccc1)c(=O)n2C`, for which the LC retention time was determined as 12 min.

On to `CCCCCCN(C)C`, for which the LC retention time is 8.53 min.

With `Cc1cc(O)c(C(C)C)cc1CNC(=O)c1ccccc1O`, the LC retention time was 14.4 min.

For `CC(C)CNC(=O)C(=O)NC1CC(C)(C)NC(C)(C)C1`, the LC retention time came out at 8.6 min.

Take `CC1(C)CC(=O)c2c(-c3ccccc3)nc3ccc4ccccc4c3c2C1`: the LC retention time amounted to 17.1 min.

In the case of `Cc1ccc(NC(=S)NN=C2CCN(C(C)C)CC2)cc1`, the LC retention time was determined as 9.64 min.

With `O=C(C=Cc1ccco1)C1CC1`, the LC retention time is 12.1 min.

In the case of `c1ccc(CNCc2ccccc2)cc1`, the LC retention time was 9.71 min.

Regarding `Cc1cc(C)c(NC(=O)c2ccncc2)c(C)c1`, the LC retention time was found to be 10.4 min.

For `Cc1cccc(NC(=O)C(Cc2c[nH]c3ccccc23)NC(=O)C(c2ccccc2)c2ccccc2)c1` (stereo not given), the LC retention time turned out to be 16.8 min.

Consider `CC(=O)Oc1c[nH]c2ccccc12`, for which the LC retention time is 11.6 min.

Regarding `CC(C)(C)NCC(O)COc1cccc2c1CCC(=O)N2` (stereo not given), the LC retention time was found to be 8.4 min.

With `O=C(C=Cc1ccccc1)c1ccc(O)cc1O`, the LC retention time stood at 14.3 min.

For the compound `CC(C)CN`, the LC retention time came to 6.34 min.

Regarding `CCCCN1CNC(=S)N(CCc2ccccc2)C1`, the LC retention time was 13.8 min.

Consider `CCCCN(C)C(=O)Cn1c(=O)c2c(C)cc(C)nc2n(-c2ccccc2)c1=O`, for which the LC retention time amounted to 15 min.

As for `Cc1ccc(-n2nc(-c3cn(C)nc3C)cc2-c2cn(C)nc2C)cc1`, the LC retention time worked out at 12 min.

On to `Nc1nc(N)nc(N)n1`, for which the LC retention time was determined as 4.25 min.

Regarding `CN1CC(C(=O)O)CC1=O` (stereo not given), the LC retention time was found to be 3.04 min.

In the case of `NCc1ccccc1`, the LC retention time worked out at 7.6 min.

For the compound `CN(C)c1ccc(CCN)cc1`, the LC retention time is 7.22 min.

Consider `Nc1ccc(C(=O)O)cc1N`, for which the LC retention time was determined as 5.93 min.

For the compound `COc1ccc2c(c1)C(C)N1C(=O)c3ccccc3C1O2` (stereo not given), the LC retention time is 13.9 min.

For the compound `NCCCCCCCCCCCCN`, the LC retention time came to 8.26 min.

`Cc1ccc2c(c1)C(=O)c1cnc(C)cc1-2`: the LC retention time amounted to 10.3 min.

With `c1ccc2[nH]ncc2c1`, the LC retention time came to 9.07 min.

The record behind these values is the RepoRT retention time repository.
